In patent US20230019491A1, “PYRIMIDINE TBK/IKKe INHIBITOR COMPOUNDS AND USES THEREOF” (Merck Patent GmbH, priority 2017, published 2023):
Structures can show the parent of a compound that is named as a salt.

Assays:
IKKε = molecular target: T1, IKKε (Homo sapiens, UniProt Q14164); experiment: IKKε biochemical assay; details: 10 point 1:4 dose response, 30 uM top concentration, 90 min at 25° C., LabChip EZ Reader II; read-out: IKKε_IC50
T1 sequence (Q14164 1-716): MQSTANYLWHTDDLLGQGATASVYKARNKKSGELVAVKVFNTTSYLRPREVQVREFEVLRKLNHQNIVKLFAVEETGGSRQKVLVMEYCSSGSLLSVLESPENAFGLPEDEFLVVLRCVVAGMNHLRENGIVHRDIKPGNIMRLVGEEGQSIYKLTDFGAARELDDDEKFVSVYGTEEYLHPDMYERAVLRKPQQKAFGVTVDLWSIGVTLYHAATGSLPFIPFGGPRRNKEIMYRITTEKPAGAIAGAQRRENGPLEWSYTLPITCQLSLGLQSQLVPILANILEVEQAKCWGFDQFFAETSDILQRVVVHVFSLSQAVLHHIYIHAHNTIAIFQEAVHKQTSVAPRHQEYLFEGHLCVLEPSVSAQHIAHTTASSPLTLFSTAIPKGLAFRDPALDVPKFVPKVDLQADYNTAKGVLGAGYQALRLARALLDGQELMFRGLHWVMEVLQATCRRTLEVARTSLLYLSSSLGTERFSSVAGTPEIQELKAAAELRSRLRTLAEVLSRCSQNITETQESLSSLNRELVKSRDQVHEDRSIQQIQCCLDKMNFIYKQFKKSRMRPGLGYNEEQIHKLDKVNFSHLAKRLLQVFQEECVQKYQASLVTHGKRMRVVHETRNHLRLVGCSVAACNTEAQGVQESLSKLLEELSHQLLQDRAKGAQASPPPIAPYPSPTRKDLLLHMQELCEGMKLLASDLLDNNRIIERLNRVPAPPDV
Outline: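 Compounds in 1% DMSO final were incubated with IKKε enzyme and substrate at 25° C. for 90 min, then stopped. Substrate and product peaks were resolved by LabChip EZ Reader II mobility-shift read-out. Staurosporine at 10 uM final served as the full-inhibition control.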

TBK1 = molecular target: T2, TBK1 (Homo sapiens, UniProt Q9UHD2); experiment: TBK biochemical assay; details: 10 point 1:4 dose response, 30 uM top concentration, 90 min at 25° C., LabChip EZ Reader II; read-out: TBK1_IC50
T2 sequence (Q9UHD2 1-729): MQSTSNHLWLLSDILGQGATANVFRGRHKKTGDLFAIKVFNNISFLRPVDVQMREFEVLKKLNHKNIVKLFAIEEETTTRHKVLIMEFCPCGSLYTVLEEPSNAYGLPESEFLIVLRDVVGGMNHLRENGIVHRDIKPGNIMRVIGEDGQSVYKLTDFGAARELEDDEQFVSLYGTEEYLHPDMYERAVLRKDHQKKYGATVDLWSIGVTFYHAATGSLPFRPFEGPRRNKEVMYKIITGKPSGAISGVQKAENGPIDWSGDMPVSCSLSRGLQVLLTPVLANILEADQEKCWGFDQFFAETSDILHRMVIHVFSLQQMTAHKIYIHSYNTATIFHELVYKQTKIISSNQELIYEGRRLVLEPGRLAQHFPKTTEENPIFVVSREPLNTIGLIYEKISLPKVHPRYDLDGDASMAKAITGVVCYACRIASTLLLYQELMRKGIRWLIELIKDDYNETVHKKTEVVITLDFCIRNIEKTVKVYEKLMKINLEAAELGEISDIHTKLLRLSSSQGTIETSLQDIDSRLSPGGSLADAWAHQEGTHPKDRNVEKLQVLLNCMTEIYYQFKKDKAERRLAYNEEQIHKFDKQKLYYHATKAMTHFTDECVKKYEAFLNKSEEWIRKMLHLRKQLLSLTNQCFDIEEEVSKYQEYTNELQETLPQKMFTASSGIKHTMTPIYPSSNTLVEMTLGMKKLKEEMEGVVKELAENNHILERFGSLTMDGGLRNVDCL
Outline: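 Substrate and product were separated and quantified by microfluidic mobility-shift read (LabChip). 10 uM staurosporine served as the full-inhibition control, and the reference compound was tested from 1 uM final.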

Work on COc1nc(Nc2nccc(-c3ccc(O[C@@H]4CCN(C(=O)[C@H](C)O)C[C@@H]4F)c(C#N)c3)n2)ccc1N1CCN(C2COC2)CC1 [Example 331, 2-[[(3S,4R)-3-fluoro-1-[(2S)-2-hydroxypropanoyl]piperidin-4-yl]oxy]-5-[2-([6-methoxy-5-[4-(oxetan-3-yl)piperazin-1-yl]pyridin-2-yl]amino)pyrimidin-4-yl]benzonitrile] yielded an IC50 (IKKε) of 100 to 1000 nM and an IC50 (TBK1) of under 100 nM.

For C[C@@H](O)C(=O)N1CCC(Oc2ccc(-c3ccnc(Nc4ccc(C5CCN(C6COC6)CC5)cc4)n3)cc2C#N)C(F)(F)C1 (stereo partly drawn) [Example 226, 2-([33-difluoro-1-[(2R)-2-hydroxypropanoyl]piperidin-4-yl]oxy)-5-[2-([4-[1-(oxetan-3-yl)piperidin-4-yl]phenyl]amino)pyrimidin-4-yl]benzonitrile], the IC50 (IKKε) was under 100 nM and the IC50 (TBK1) was under 100 nM.

In the case of COc1nc(Nc2nccc(-c3ccc(OC4CCN(C(=O)[C@H](C)O)C(C)C4)c(C#N)c3)n2)ccc1N1CCN(C2COC2)CC1 (stereo partly drawn) [Example 266, 2-[1-((S)-2-Hydroxy-propionyl)-2-methyl-piperidin-4-yloxy]-5-{2-[6-methoxy-5-(4-oxetan-3-yl-piperazin-1-yl)-pyridin-2-ylamino]-pyrimidin-4-yl}-benzonitrile], the IC50 (IKKε) is reported as under 100 nM and the IC50 (TBK1) is reported as under 100 nM.

For N#Cc1cc(-c2ccnc(Nc3ccc(N4CCN(C5COC5)CC4)cc3)n2)ccc1OC1CNC1 [Example 171, 2-(azetidin-3-yloxy)-5-[2-([4-[4-(oxetan-3-yl)piperazin-1-yl]phenyl]amino)pyrimidin-4-yl]benzonitrile], the IC50 (IKKε) was under 100 nM and the IC50 (TBK1) was under 100 nM.

For COc1nc(Nc2nccc(-c3ccc(OC4CCN(C)CC4)c(C#N)c3)n2)ccc1C(=O)N(C)C [Example 71, 6-[(4-[3-cyano-4-[(1-methylpiperidin-4-yl)oxy]phenyl]pyrimidin-2-yl)amino]-2-methoxy-N,N-dimethylpyridine-3-carboxamide hydrochloride], the IC50 (IKKε) was 100 to 1000 nM and the IC50 (TBK1) was 100 to 1000 nM.

In the case of CN(C)C(=O)c1ccc(Nc2nccc(-c3ccc(OC4CCOCC4)c(C#N)c3)n2)nc1 [Example 22, 6-([4-[3-cyano-4-(oxan-4-yloxy)phenyl]pyrimidin-2-yl]amino)-N,N-dimethylpyridine-3-carboxamide], the IC50 (IKKε) is reported as 100 to 1000 nM and the IC50 (TBK1) is reported as 100 to 1000 nM.

COc1nc(Nc2nccc(-c3ccc(OC4CCOCC4F)c(C#N)c3)n2)ccc1N1CCN(C2COC2)CC1 (centres unmarked) [Example 170, 2-(3-Fluoro-tetrahydro-pyran-4-yloxy)-5-{2-[6-methoxy-5-(4-oxetan-3-yl-piperazin-1-yl)-pyridin-2-ylamino]-pyrimidin-4-yl}-benzonitrile] gave an IC50 (IKKε) of under 100 nM and an IC50 (TBK1) of under 100 nM.

Compound COc1nc(Nc2ncc(C)c(-c3ccc(OC4CCN(C(=O)[C@@H](C)O)CC4(F)F)c(C#N)c3)n2)ccc1N1CCN(C2COC2)CC1 (stereo partly drawn) [Example 286, 2-([33-difluoro-1-[(2R)-2-hydroxypropanoyl]piperidin-4-yl]oxy)-5-[2-([6-methoxy-5-[4-(oxetan-3-yl)piperazin-1-yl]pyridin-2-yl]amino)-5-methylpyrimidin-4-yl]benzonitrile] has an IC50 (IKKε) of 100 to 1000 nM and an IC50 (TBK1) of under 100 nM.

Compound N#Cc1cc(-c2ccnc(Nc3ccc(N4CCN(C5COC5)CC4)cc3)n2)ccc1OC1CCN(C(=O)CO)CC1(F)F (centres unmarked) [Example 137, 2-[[3,3-difluoro-1-(2-hydroxyacetyl)piperidin-4-yl]oxy]-5-[2-([4-[4-(oxetan-3-yl)piperazin-1-yl]phenyl]amino)pyrimidin-4-yl]benzonitrile] has an IC50 (IKKε) of under 100 nM and an IC50 (TBK1) of under 100 nM.

Work on C[C@@H](O)C(=O)N1CCC(Oc2ccc(-c3ccnc(Nc4ccncc4)n3)cc2C#N)C(F)(F)C1 (stereo partly drawn) [Example 208, 2-([3,3-difluoro-1-[(2R)-2-hydroxypropanoyl]piperidin-4-yl]oxy)-5-[2-[(pyridin-4-yl)amino]pyrimidin-4-yl]benzonitrile] yielded an IC50 (IKKε) of under 100 nM and an IC50 (TBK1) of under 100 nM.

In the case of C[C@H](O)C(=O)N1CCC(Oc2ccc(-c3ccnc(Nc4ccncc4)n3)cc2C#N)C(F)(F)C1 (stereo partly drawn) [Example 207, 2-([3,3-difluoro-1-[(2S)-2-hydroxypropanoyl]piperidin-4-yl]oxy)-5-[2-[(pyridin-4-yl)amino]pyrimidin-4-yl]benzonitrile], the IC50 (IKKε) is reported as under 100 nM and the IC50 (TBK1) is reported as under 100 nM.

Compound COc1nc(Nc2nccc(-c3ccc(OC4CCN(C(=O)[C@H](C)O)CC4)c(C#N)c3)n2)ccc1N1CCN(C2COC2)CC1 [Example 187, 2-([1-[(2S)-2-hydroxypropanoyl]piperidin-4-yl]oxy)-5-[2-([6-methoxy-5-[4-(oxetan-3-yl)piperazin-1-yl]pyridin-2-yl]amino)pyrimidin-4-yl]benzonitrile] has an IC50 (IKKε) of under 100 nM and an IC50 (TBK1) of under 100 nM.

With COc1nc(Nc2nccc(-c3ccc(OC4CCN(C(=O)C(C)O)CC4(F)F)c(C#N)c3)n2)ccc1C1CCN(C2COC2)CC1 (centres unmarked) [Example 329, 2-[[33-difluoro-1-(2-hydroxypropanoyl)piperidin-4-yl]oxy]-5-[2-([6-methoxy-5-[1-(oxetan-3-yl)piperidin-4-yl]pyridin-2-yl]amino)pyrimidin-4-yl]benzonitrile] the IC50 (IKKε) was under 100 nM and the IC50 (TBK1) was under 100 nM.

Work on C[C@@H](O)C(=O)N1CCC(Oc2ccc(-c3ccnc(Nc4ccc(N5CCN(C6COC6)CC5)cc4)n3)cc2C#N)C1 (stereo partly drawn) [Example 179, 2-([1-[(2R)-2-hydroxypropanoyl]pyrrolidin-3-yl]oxy)-5-[2-([4-[4-(oxetan-3-yl)piperazin-1-yl]phenyl]amino)pyrimidin-4-yl]benzonitrile] yielded an IC50 (IKKε) of under 100 nM and an IC50 (TBK1) of under 100 nM.

Work on C[C@H](O)C(=O)N1CC[C@@H](Oc2ccc(-c3ccnc(Nc4ccc(N5CCN(C6COC6)CC5)cc4)n3)cc2C#N)C(F)(F)C1 [Example 140, 2-[[(4R)-3,3-difluoro-1-[(2S)-2-hydroxypropanoyl]piperidin-4-yl]oxy]-5-[2-([4-[4-(oxetan-3-yl)piperazin-1-yl]phenyl]amino)pyrimidin-4-yl]benzonitrile] yielded an IC50 (IKKε) of under 100 nM and an IC50 (TBK1) of under 100 nM.

COc1nc(Nc2nccc(-c3ccc(OC4CCN(C(=O)[C@@H](C)O)C4)c(C#N)c3)n2)ccc1N1CCN(C2COC2)CC1 (stereo partly drawn) [Example 184, 2-([1-[(2R)-2-hydroxypropanoyl]pyrrolidin-3-yl]oxy)-5-[2-([6-methoxy-5-[4-(oxetan-3-yl)piperazin-1-yl]pyridin-2-yl]amino)pyrimidin-4-yl]benzonitrile] was tested, and the IC50 (IKKε) was 100 to 1000 nM and the IC50 (TBK1) was 100 to 1000 nM.

COc1nc(Nc2nccc(-c3ccc(OC4CCN(C(=O)C(C)O)CC4(F)F)c(C#N)c3)n2)ccc1C1CCN(C)CC1 (centres unmarked) [Example 146, 2-[[3,3-difluoro-1-(2-hydroxypropanoyl)piperidin-4-yl]oxy]-5-(2-[[6-methoxy-5-(1-methylpiperidin-4-yl)pyridin-2-yl]amino]pyrimidin-4-yl)benzonitrile] showed an IC50 (IKKε) of under 100 nM and an IC50 (TBK1) of under 100 nM.

COc1nc(Nc2nccc(-c3ccc(OC4CCOCC4)c(C#N)c3)n2)ccc1C(=O)NC1C2COCC21 (centres unmarked) [Example 8, 6-([4-[3-cyano-4-(oxan-4-yloxy)phenyl]pyrimidin-2-yl]amino)-2-methoxy-N-[3-oxabicyclo[3.1.0]hexan-6-yl]pyridine-3-carboxamide] gave an IC50 (IKKε) of under 100 nM and an IC50 (TBK1) of under 100 nM.

With C[C@H](O)C(=O)N1CC(COc2ccc(-c3ccnc(Nc4ccc(N5CCN(C6COC6)CC5)cc4)n3)cc2C#N)C1 [Example 277, 2-([1-[(2S)-2-hydroxypropanoyl]azetidin-3-yl]methoxy)-5-[2-([4-[4-(oxetan-3-yl)piperazin-1-yl]phenyl]amino)pyrimidin-4-yl]benzonitrile] the IC50 (IKKε) was under 100 nM and the IC50 (TBK1) was under 100 nM.
